Assay results from patent US20260248794A1, “METHODS AND MATERIALS FOR PROMOTING BONE GROWTH” (Mayo Foundation for Medical Education and Research, priority 2022, published 2026).
Several values for one entry are separate records, joined by “and”; a condition that tells them apart may be missing. Equal values may be shown once. Entries after “also recorded” stand apart in the source; their conditions may differ.

Legend:
H3K27me3 in MC3T3 cells = assay: Western blotting for H3K27me3 in MC3T3 cells treated with EED inhibitor; type: cell-based, murine; settings: A-395 at 0.02-10 mM as printed, FIG. 5A
Description: (§1) MC3T3 sc4 murine calvarial osteoblasts were purchased from American Type Culture Collection and maintained in α-minimal essential medium without ascorbic acid (Gibco) containing 10% fetal bovine serum (Atlanta Biologicals), 100 units/mL penicillin, and 100 µg/mL streptomycin (Gibco).
MC3T3 cells (4,000 cells/cm^2) were plated in 6-well plates in maintenance medium. […] Cells were lysed in radioimmunoprecipitation buffer (150 mm NaCl, 50 mm Tris, pH 7.4, 1% sodium deoxycholate, 0.1% sodium dodecyl sulfate, 1% Triton X-100) supplemented with protease inhibitor mixture (Sigma) and phenylmethylsulfonyl fluoride (Sigma). Lysates were cleared by centrifugation. Protein concentrations were determined by the DC Protein Assay (Bio-Rad). Proteins were resolved by SDS-PAGE and transferred to polyvinylidene difluoride membranes. After blocking in 5% nonfat dry milk for 45 minutes at room temperature, primary antibodies were added overnight at 4° C., followed by secondary antibodies for 1 hour at room temperature. Proteins were visualized using an ECL Prime detection kit.

G610C mice [1] = assay: μCT analysis of G610C mice treated with A-395 for 3 weeks; type: in vivo; settings: male G610C mice
Description: (§2) G610C mice were treat with the EED inhibitor A-395. […] The dose of A-395 was lowered to see if that improved the health of the mice and bone formation. Three 5-week-old male G610C mice were treated with DMSO control or either 50 mg/kg or 100 mg/kg A-395 twice a week by subcutaneous injection for 3 weeks.

G610C mice [2] = assay: Three-point bending of G610C mice treated with A-395 for 3 weeks; type: in vivo; settings: male G610C mice
Description: Three-point bend fixture was mounted on a servohydrauilic mechanical testing frame (#312, MTS Systems) instrumented with a 100-N capacity load cell (#3397-25, Leebow Products). Femurs were be mounted on supports spanning 8 mm. Point loading was applied to the femur mid-shaft allowing the bones to flex about an axis aligned with the medial-lateral line. Loading was applied under displacement control at a rate of 20 mm/minute until fracture. Force and displacement data were be sampled at 256 Hz. Peak load and peak displacement was be quantified. The stiffness was be calculated from the slope of the linear region of the force displacement curve.
as §2

MC3T3 cells = assay: Osteogenic differentiation of MC3T3 cells (RT-qPCR of osteogenic genes, alizarin red staining); type: cell-based, murine; settings: differentiating MC3T3 cells; FIG. 5B-5F
Description: as §1
For osteogenic differentiation, MC3T3s were seeded in respective maintenance medium at a density of 10,000 cells/cm^2. Next day, osteogenic medium supplemented with vehicle, GSK126 (Xcess Biociences Inc.) or A-395 (Sigma) was added to the cells. Osteogenic medium for MC3T3 cells consisted of 50 μg/mL ascorbic acid (Sigma) and 4 mm β-glycerol phosphate (Sigma). Three days later, old medium was replaced with a fresh batch of osteogenic medium supplemented with vehicle, GSK126, or A-395. On day 6 of differentiation, fresh osteogenic medium without supplements was added and replenished every 2 to 3 days. On day 14, cells were fixed in 10% neutral buffered formalin and stained with 2% alizarin red to visualize calcium deposition.
Total RNA was isolated using the Direct-zol™ RNA kit (Zymo Research) and quantified using the NanoDrop 2000 spectrophotometer (Thermo Fischer Scientific). RNA was then reverse transcribed into cDNA by the SuperScript III First-Strand Synthesis System (Invitrogen). Transcript levels were then measured using the 2^ΔΔct method and normalized GAPDH (set at 100), a housekeeping gene.

OI mice = assay: μCT analysis of femurs of OI mice treated with A-395 for 5 weeks; type: in vivo
Description: (§3) Five-week-old OI mice (mice harboring the Col1a2 c.2098G>T p.Gly700Cys allele […]) were subcutaneously injected with DMSO (vehicle) or EED inhibitor A-395 (Sigma) at concentrations of either 100 mg/kg or 300 mg/kg twice weekly for 5 weeks.
Femurs of injected mice were scanned by μCT Skyscan 1076 (Brunker) at the maximal potencial 60 kV and 167 μA with 0.25 mm thick aluminum filter and at the voxel resolution of 9 μm. The μCT scans were performed over 360° of total rotation with each angular rotation step of 0.7°. […] The trabecular region of interest were selected with reference to the growth plate. The 2D images were created using CTAn siftware package (Skyscan). The 3D μCT models of each femur were created using a 3D reconstruction software package (Skyscan).
(§4) 5-week-old OI mice were treated twice weekly with a subcutaneous injection of either vehicle (DMSO) or EED inhibitor A-395 had concentrations of 300 mg/kg or 100 mg/kg. These mice were treated for five weeks and then analyzed for changes in bone structure.

[3] = Weight, femur length and toxicity in OI mice treated with A-395 for 5 weeks; type: in vivo; settings: for Weigh at 3 weeks: 3 weeks of age, prior to treatment; for Weight at 5 weeks: start of treatment; for Weight at 10 weeks: individual OI mice
Description: as §3, §4
OI mice were weighed at 3 weeks of age prior to treatment, at the start of treatment at 5 weeks, and after 5 weeks of treatment with vehicle (Veh), 300 mg/kg (300), or 100 mg/kg (100) of A-395.

G610C mice [4] = assay: μCT analysis of large cohort of G610C mice treated with MAK683; type: in vivo; settings: for bone density (μCT) / trabecular structure: G610C mice; for bone density (μCT): 3 weeks, 9 mice per group; for trabecular structure: vs vehicle treated control; for bone quality parameters: OI mice
Description: One day prior to treatment 5-week-old male G610C mice were weighed to determine dosing. MAK683 was dissolved in DMSO for each treatment arm of 5, 10, 20, or 50 mg/kg for selected mice. The volume was adjusted to […] for injection using corn oil. Mice were injected subcutaneously twice weekly for 3 weeks. After 3 weeks, mice were euthanized, and bone was harvested.
To further examine if different doses of MAK683 improved bone formation in 01, SQ nine 5-week-old male G610C mice were injected with 50, 20, 10, or 5 mg/kg MAK683 twice a week for 3 weeks.

G610C mice [5] = assay: μCT analysis of G610C mice treated with MAK683 for 3 weeks (three mice); type: in vivo; settings: for bone density / trabecular structure: G610C mice, vs vehicle treated control; for bone parameters (μCT) vs controls: male G610C mice, 3 weeks
Description: To determine if MAK683 improved bone formation in OI, three 5-week-old male G610C mice were injected SQ with 50 mg/kg MAK683 twice a week for 3 weeks.

OVX mice = assay: μCT analysis of OVX mice treated with MAK683; type: in vivo, C57BL/6 female mice
Description: To assess whether EED inhibition could rescue low bone mass due to osteoporosis, ovariectomy (OVX) or sham (Sham) surgery on was performed 15-week-old C57BL/6 female mice with 6 animals per group. On the day of surgery, all mice were imaged using a PIXImus densitometer to measure bone density prior to OVX. Mice were allowed 7 days to recover. Mice in each group were randomized to EED inhibitor treatment or control. These groups were sham/vehicle (Sh−), sham/EED (SH+), OVX/vehicle (OV−), and OVX/EED (OV+). Again, each mouse was imaged to determine bone density after OVX prior to EED treatment. Mice were then injected with vehicle control or 20 mg/kg MAK683 SQ twice weekly for 3 weeks.

[6] = 100 mg/kg, vs vehicle, 100 mg/kg
[7] = 300 mg/kg, vs vehicle, 300 mg/kg
[8] = individual OI mice of the 100 mg/kg group, in g (unit assumed)
[9] = individual OI mice of the 300 mg/kg group, in g (unit assumed)
[10] = 20 mg/kg, vs OVX vehicle treated control

## CN(C)C1CN(C2CCc3cccc(F)c32)CC1c1ccc(N2CCN(S(C)(=O)=O)CC2)cc1 (stereo not drawn) [A-395, 1-(7-fluoro-2,3-dihydro-1H-inden-1-yl)-N,N-dimethyl-4-[4-(4-methylsulfonylpiperazin-1-yl)phenyl]pyrrolidin-3-amine]
H3K27me3 in MC3T3 cells
  H3K27me3 (western blotting): reduced H3K27me3 in a concentration-dependent manner
G610C mice [1]; 50 mg/kg SC twice a week
  bone formation (μCT): increase in bone formation
G610C mice [1]; 100 mg/kg SC twice a week
  bone formation (μCT): increase in bone formation
G610C mice [1]; 300 mg/kg SQ twice a week
  bone (μCT) vs controls: less bone than controls
  health of treated mice at end of protocol: losing weight and appeared sickly
G610C mice [2]; 50 mg/kg SC twice a week
  stiffness (three-point bending): improved stiffness
G610C mice [2]; 100 mg/kg SC twice a week
  stiffness (three-point bending): improved stiffness
MC3T3 cells
  osteogenic differentiation (osteogenic genes, alizarin red staining): stimulates osteogenesis; also recorded: more potent at stimulating osteogenic differentiation
OI mice; 100 mg/kg
  bone surface density: increase
  bone surface to volume ratio: decrease
  intersection surface: no change
  trabecular number: increase
  trabecular pattern: decrease
  trabecular thickness: increase
OI mice; 100 mg/kg SC twice weekly
  bone formation within the femurs (μCT): robust bone formation
OI mice; 100 mg/kg, vs vehicle
  bone surface: increase
  trabecular bone: increase in trabecular bone
OI mice; [6]
  bone volume: increased
  percent bone per volume: increased
  tissue surface: increased
  tissue volume: increased
OI mice; 300 mg/kg
  bone surface to volume ratio: unchanged
  intersection surface: down
  trabecular number: decrease
  trabecular pattern: slight decrease
  trabecular thickness: slight decrease
OI mice; 300 mg/kg SC twice weekly
  bone mineralization (μCT): loss of bone mineralization
OI mice; 300 mg/kg, FIG. 11A
  bone density: down
OI mice; 300 mg/kg, vs vehicle
  trabecular bone: loss of trabecular bone
OI mice; [7]
  bone surface: decrease and down
  bone volume: decreased
  percent bone per volume: decreased
  tissue volume: increased
[3]; OI mice, 300 mg/kg SC twice weekly, 5 weeks
  toxicity to the mouse: toxic
[3]; OI mice, 300 mg/kg or 100 mg/kg, after 5 weeks of treatment, vs vehicle
  weight (change vs vehicle): no significant changes
[3]; [8]
  Weigh at 3 weeks: 10.5 and 10.2 and 9.6
  Weight at 5 weeks: 21.3 and 21.6 and 19.9
[3]; [9]
  Weigh at 3 weeks: 11.1 and 11.9 and 14.0
  Weight at 5 weeks: 20.9 and 22.6 and 24.0
[3]; 100 mg/kg, after 5 weeks of treatment, 100 mg/kg
  Weight at 10 weeks: 26.5 (2×) and 28.0
[3]; 300 mg/kg, after 5 weeks of treatment, 300 mg/kg, in g (unit assumed)
  Weight at 10 weeks: 26.6 and 27.8 and 29.0

## CS(=O)(=O)c1ccc(-c2cnc(NCc3ccco3)n3cnnc23)cc1 [EED226, n-(2-furanylmethyl)-8-[4-(methylsulfonyl)phenyl]-1,2,4-triazolo[4,3-c]pyrimidin-5-amine]
H3K27me3 in MC3T3 cells
  H3K27me3 (western blotting): reduced H3K27me3 in a concentration-dependent manner

## Cc1ncccc1-c1cnc(NCc2c(F)ccc3c2CCO3)n2cnnc12 [MAK683, N-[(5-fluoro-2,3-dihydro-1-benzofuran-4-yl)methyl]-8-(2-methylpyridin-3-yl)-[1,2,4]triazolo[4,3-c]pyrimidin-5-amine]
G610C mice [4]; 5 mg/kg SQ twice a week
  bone density (μCT): possible minor improvement
G610C mice [4]; 10 mg/kg SQ twice a week, 10 mg/kg
  bone density (μCT): visual improvement; also recorded: significant increase
G610C mice [4]; 10 mg/kg
  trabecular structure: significant increase
G610C mice [4]; 20 mg/kg SQ twice a week, 20 mg/kg
  bone density (μCT): visual improvement; also recorded: significant increase
G610C mice [4]; 20 mg/kg
  trabecular structure: significant increase
G610C mice [4]; 50 mg/kg SQ twice a week
  bone density (μCT): possible minor improvement
G610C mice [4]; G610C mice, 50, 20, 10, or 5 mg/kg, FIG. 17B-M
  bone parameters (μCT) vs controls: improvement in many bone parameters
G610C mice [4]; 5 mg/kg
  bone quality parameters: trend in increased
G610C mice [4]; 50 mg/kg
  bone quality parameters: trend in increased
G610C mice [5]; 20 mg/kg
  bone density: significant increase
  trabecular structure: significant increase
G610C mice [5]; 50 mg/kg
  bone density: significant increase
  trabecular structure: significant increase
G610C mice [5]; 20 mg/kg SQ twice a week
  bone parameters (μCT) vs controls: improvement in essentially all bone parameters
G610C mice [5]; 50 mg/kg SQ twice a week
  bone parameters (μCT) vs controls: improvement in many bone parameters
OVX mice; 20 mg/kg SQ twice weekly, 3 weeks
  bone loss (μCT): prevented bone loss
OVX mice; [10]
  bone density: significant intention
  trabecular number: significant intention
